The results in this text go back to ChEMBL document CHEMBL4483862, “Open-source discovery of chemical leads for next-generation chemoprotective antimalarials” (2018).

For the assay, the system named is Plasmodium berghei. In words: Luciferase/luciferin-expressing antifolate-resistant parasites were used to infect a culture of HepG2 cells that were pre-incubated with compounds. Infected hepatocytes emit light due to the luciferase reaction. Assay results are presented as the percent inhibition of light emission compared to control. […]. It is filed as functional. To be noted: sporozoite; for IC90: read-out: LUCIFERASE INFECTION ASSAY - IC90.

On to `CC(C)c1ccc(/C=C/C2=NNC(=O)CC2)cc1`, for which the IC90 was more than 13600 nM. Besides, the IC50 (HEPG2TOX_HILL_SLOPE 0.687, HEPG2TOX_R_SQUARED 0.88, PBLUC_HILL_SLOPE 0.307, PBLUC_R_SQUARED 0.14, read-out: LUCIFERASE INFECTION ASSAY - IC50) is more than 13600 nM.
`COc1ccc(/C=C/C2=NNC(=O)CC2)cc1`: the IC90 is more than 14300 nM. For the same compound, the half-maximal inhibitory concentration (IC50) (HEPG2TOX_HILL_SLOPE 0.708, HEPG2TOX_R_SQUARED 0.9, read-out: LUCIFERASE INFECTION ASSAY - IC50) is more than 14300 nM.
As for `COc1ccc(Nc2cc(C)nc(-n3nc(C)cc3C)n2)cc1`, the IC90 was 4190 nM. Further, the concentration for half-maximal inhibition (IC50) (HEPG2TOX_HILL_SLOPE 0.695, HEPG2TOX_R_SQUARED 0.68, PBLUC_HILL_SLOPE 2.57, PBLUC_R_SQUARED 0.661, read-out: LUCIFERASE INFECTION ASSAY - IC50) was 1780 nM.
Turning to `Oc1cc(-c2ccccc2)nc2ccccc12`, the concentration for an effect of 90% (IC90) amounted to 307 nM. Besides, the IC50 (HEPG2TOX_HILL_SLOPE 0.704, HEPG2TOX_R_SQUARED 0.901, PBLUC_HILL_SLOPE 3.71, PBLUC_R_SQUARED 0.852, read-out: LUCIFERASE INFECTION ASSAY - IC50) amounted to 170 nM.
As for `c1cncc(-c2cnc3ccc(-c4ccoc4)nn23)c1`, the IC90 was more than 10000 nM. The concentration for half-maximal inhibition (IC50) (HEPG2TOX_HILL_SLOPE 0.706, HEPG2TOX_R_SQUARED 0.847, PBLUC_HILL_SLOPE 1.15, PBLUC_R_SQUARED 0.722, read-out: LUCIFERASE INFECTION ASSAY - IC50) turned out to be 1630 nM.
For the compound `Cc1sc2ncnc(NC(C)c3ccc(-n4ccnc4)cc3)c2c1C` (stereo not drawn), the IC90 was more than 10000 nM. Also, the IC50 (HEPG2TOX_HILL_SLOPE 0.71, HEPG2TOX_R_SQUARED 0.913, PBLUC_HILL_SLOPE 1.13, PBLUC_R_SQUARED 0.519, read-out: LUCIFERASE INFECTION ASSAY - IC50) turned out to be 2600 nM.
`FC(F)(F)Oc1cccc(-c2nnc3ccc(-c4cccc5ncccc45)cn23)c1`: the 90% effect concentration (IC90) stood at 2550 nM. In addition, for the setting “HEPG2TOX_HILL_SLOPE 0.706, HEPG2TOX_R_SQUARED 0.938, PBLUC_HILL_SLOPE 2.17, PBLUC_R_SQUARED 0.421, read-out: LUCIFERASE INFECTION ASSAY - IC50”, the concentration for half-maximal inhibition (IC50) was determined as 928 nM.
Consider `CC1(C(=O)Nc2ccncc2)CCN1Cc1ccc2ccccc2c1` (stereo not drawn), for which the IC90 was found to be 7130 nM. Where the note is “HEPG2TOX_HILL_SLOPE 0.704, HEPG2TOX_R_SQUARED 0.958, PBLUC_HILL_SLOPE 1.6, PBLUC_R_SQUARED 0.488, read-out: LUCIFERASE INFECTION ASSAY - IC50”, the 50% inhibitory concentration (IC50) worked out at 1800 nM.
For `CC(=O)Nc1cccc(-c2ccc3ncc(-c4ccccc4)n3n2)c1`, the 90% effect concentration (IC90) was more than 10000 nM. Moreover, where the note is “HEPG2TOX_HILL_SLOPE 0.716, HEPG2TOX_R_SQUARED 0.978, PBLUC_HILL_SLOPE 1, PBLUC_R_SQUARED 0.535, read-out: LUCIFERASE INFECTION ASSAY - IC50”, the IC50 worked out at 3870 nM.
On to `NC(=O)c1cccc(-c2ccc3ncc(-c4cccs4)n3n2)c1`, for which the IC90 was more than 10000 nM. Moreover, under “HEPG2TOX_HILL_SLOPE 0.701, HEPG2TOX_R_SQUARED 0.861, PBLUC_HILL_SLOPE 2.21, PBLUC_R_SQUARED 0.712, read-out: LUCIFERASE INFECTION ASSAY - IC50”, the IC50 was determined as 4090 nM.
Consider `COc1cncc(-c2cnc3c(Nc4cc(OC)c(OC)c(OC)c4)nccn23)c1`, for which the concentration for an effect of 90% (IC90) turned out to be 297 nM. Moreover, the IC50 (HEPG2TOX_HILL_SLOPE 0.708, HEPG2TOX_R_SQUARED 0.654, PBLUC_HILL_SLOPE 2.45, PBLUC_R_SQUARED 0.956, read-out: LUCIFERASE INFECTION ASSAY - IC50) is 121 nM.
In the case of `O=C(OCc1ncc(-c2ccccc2)o1)c1cc([N+](=O)[O-])ccc1N1CCOCC1`, the IC90 is 3400 nM. Moreover, where the note is “HEPG2TOX_HILL_SLOPE 0.712, HEPG2TOX_R_SQUARED 0.947, PBLUC_HILL_SLOPE 1.1, PBLUC_R_SQUARED 0.629, read-out: LUCIFERASE INFECTION ASSAY - IC50”, the IC50 was found to be 465 nM.
`CC(C)c1ccc2cc(C(=O)Nc3ccc4c(c3)NC(=O)CO4)[nH]c2c1`: the IC90 is 2970 nM. For the same compound, the IC50 (HEPG2TOX_HILL_SLOPE 0.683, HEPG2TOX_R_SQUARED 0.922, PBLUC_HILL_SLOPE 2.26, PBLUC_R_SQUARED 0.558, read-out: LUCIFERASE INFECTION ASSAY - IC50) is 1130 nM.
Take `O=C(CCc1c(-c2ccc(F)cc2)[nH]c2ccc(F)cc12)NCCN1CCOCC1`: the 90% effect concentration (IC90) is more than 10000 nM. Where the note is “HEPG2TOX_HILL_SLOPE 0.681, HEPG2TOX_R_SQUARED 0.0413, read-out: LUCIFERASE INFECTION ASSAY - IC50”, the IC50 is more than 10000 nM.
Regarding `Clc1ccccc1-c1nc2ccnc(NCCc3ccccc3)c2[nH]1`, the 90% effect concentration (IC90) was 7970 nM. Besides, where the note is “HEPG2TOX_HILL_SLOPE 0.707, HEPG2TOX_R_SQUARED 0.751, PBLUC_HILL_SLOPE 2.17, PBLUC_R_SQUARED 0.665, read-out: LUCIFERASE INFECTION ASSAY - IC50”, the IC50 was found to be 2900 nM.
For the compound `Cc1nn2c(=O)c(Cc3ccccc3)c(C)[nH]c2c1-c1ccc(F)cc1`, the IC90 was found to be 1300 nM. In addition, under “HEPG2TOX_HILL_SLOPE 0.716, HEPG2TOX_R_SQUARED 0.984, PBLUC_HILL_SLOPE 2.69, PBLUC_R_SQUARED 0.765, read-out: LUCIFERASE INFECTION ASSAY - IC50”, the concentration for half-maximal inhibition (IC50) came out at 576 nM.
As for `COC(=O)c1c(-c2c(Cl)cccc2Cl)noc1CC=Nc1ccc(C(=O)O)cc1`, the 90% effect concentration (IC90) was more than 7620 nM. Also, for the setting “HEPG2TOX_HILL_SLOPE 0.693, HEPG2TOX_R_SQUARED 0.602, read-out: LUCIFERASE INFECTION ASSAY - IC50”, the concentration for half-maximal inhibition (IC50) was more than 7620 nM.
Regarding `Cc1sc2nc3n(c(=O)c2c1C)CC/C3=C/c1cccc2ccccc12`, the IC90 was more than 10000 nM. Besides, where the note is “HEPG2TOX_HILL_SLOPE 0.688, HEPG2TOX_R_SQUARED 0.114, PBLUC_HILL_SLOPE 1.25, PBLUC_R_SQUARED 0.514, read-out: LUCIFERASE INFECTION ASSAY - IC50”, the IC50 amounted to 3000 nM.
As to `CSc1sc(C(=O)N/N=C/c2ccccc2Cl)c2c1C(O)CCC2` (stereo not drawn), the IC90 is more than 8660 nM. Further, under “HEPG2TOX_HILL_SLOPE 0.679, HEPG2TOX_R_SQUARED 0.968, PBLUC_HILL_SLOPE 1.34, PBLUC_R_SQUARED 0.516, read-out: LUCIFERASE INFECTION ASSAY - IC50”, the IC50 stood at 2100 nM.
For the compound `Cc1ccccc1-c1cn2c(-c3ccc(CO)cc3)cnc2cn1`, the IC90 was 10400 nM. Further, where the note is “HEPG2TOX_HILL_SLOPE 0.675, HEPG2TOX_R_SQUARED 0.753, PBLUC_HILL_SLOPE 1.37, PBLUC_R_SQUARED 0.689, read-out: LUCIFERASE INFECTION ASSAY - IC50”, the 50% inhibitory concentration (IC50) worked out at 2100 nM.
Consider `Cc1ccc(S(=O)(=O)N2CCN(C(=O)C3CCN(c4nc5ccccc5o4)CC3)CC2)cc1C`, for which the 90% effect concentration (IC90) was 2620 nM. Besides, where the note is “HEPG2TOX_HILL_SLOPE 0.685, HEPG2TOX_R_SQUARED 0.962, PBLUC_HILL_SLOPE 3.7, PBLUC_R_SQUARED 0.71, read-out: LUCIFERASE INFECTION ASSAY - IC50”, the 50% inhibitory concentration (IC50) came out at 1450 nM.
Turning to `c1ccc2c(NCc3ccc(N4CCCC4)nc3)ncnc2c1`, the IC90 is 3160 nM. In addition, the IC50 (HEPG2TOX_HILL_SLOPE 0.683, HEPG2TOX_R_SQUARED 0.958, PBLUC_HILL_SLOPE 1.41, PBLUC_R_SQUARED 0.701, read-out: LUCIFERASE INFECTION ASSAY - IC50) is 668 nM.
With `CN(C)c1nc(N)nc(CN(Cc2nc(N)nc(N(C)C)n2)C23CC4CC(CC(C4)C2)C3)n1`, the concentration for an effect of 90% (IC90) was determined as 149 nM. In addition, the IC50 (HEPG2TOX_HILL_SLOPE 0.693, HEPG2TOX_R_SQUARED 0.937, PBLUC_HILL_SLOPE 2.94, PBLUC_R_SQUARED 0.84, read-out: LUCIFERASE INFECTION ASSAY - IC50) was 70.7 nM.
As to `Cc1nc(NCCNc2cnccn2)c2c(-c3cccs3)csc2n1`, the IC90 was 5980 nM. Further, the IC50 (HEPG2TOX_HILL_SLOPE 0.714, HEPG2TOX_R_SQUARED 0.963, PBLUC_HILL_SLOPE 3.5, PBLUC_R_SQUARED 0.488, read-out: LUCIFERASE INFECTION ASSAY - IC50) amounted to 3190 nM.
`CC(Nc1ncnc2sccc12)c1ccc(-n2cncn2)cc1` (stereo not drawn): the 90% effect concentration (IC90) is more than 10000 nM. The IC50 (HEPG2TOX_HILL_SLOPE 0.68, HEPG2TOX_R_SQUARED 0.808, PBLUC_HILL_SLOPE 0.888, PBLUC_R_SQUARED 0.682, read-out: LUCIFERASE INFECTION ASSAY - IC50) was 1950 nM.
For `Cn1ccc2cc(-c3cnc4cnc(-c5ccccc5Cl)cn34)ccc21`, the IC90 worked out at 43 nM. In addition, the IC50 (HEPG2TOX_HILL_SLOPE 0.673, HEPG2TOX_R_SQUARED 0.619, PBLUC_HILL_SLOPE 2.33, PBLUC_R_SQUARED 0.732, read-out: LUCIFERASE INFECTION ASSAY - IC50) came to 16.8 nM.
As to `CC(=O)Nc1cccc(-c2ccc3ncc(-c4cccs4)n3n2)c1`, the 90% effect concentration (IC90) is more than 10000 nM. The IC50 (HEPG2TOX_HILL_SLOPE 0.699, HEPG2TOX_R_SQUARED 0.927, PBLUC_HILL_SLOPE 0.967, PBLUC_R_SQUARED 0.554, read-out: LUCIFERASE INFECTION ASSAY - IC50) is 2810 nM.
Regarding `COc1cc(-c2cc(-c3cc4ccccc4s3)cnc2N)cc(OC)c1OC`, the concentration for an effect of 90% (IC90) was more than 8410 nM. Also, the half-maximal inhibitory concentration (IC50) (HEPG2TOX_HILL_SLOPE 0.717, HEPG2TOX_R_SQUARED 0.312, PBLUC_HILL_SLOPE 43.5, PBLUC_R_SQUARED 0.0859, read-out: LUCIFERASE INFECTION ASSAY - IC50) is 8370 nM.
For the compound `COc1cc(-c2cc(-c3ccc(S(C)(=O)=O)cc3)cnc2N)ccc1O`, the 90% effect concentration (IC90) came out at 1100 nM. In addition, under “HEPG2TOX_HILL_SLOPE 0.691, HEPG2TOX_R_SQUARED 0.303, PBLUC_HILL_SLOPE 2.60E+03, PBLUC_R_SQUARED 0.903, read-out: LUCIFERASE INFECTION ASSAY - IC50”, the IC50 stood at 1100 nM.

The term IC50 denotes the midpoint of a concentration-inhibition curve. The term IC90 denotes the concentration needed for an effect of 90%.
